ChEMBL document CHEMBL3991601, “The target landscape of clinical kinase drugs” (Science, 2017)
Calls of active or inactive are those of the source.

Experiments:
[1] = biological target: T1, DNA replication licensing factor MCM4 (Homo sapiens, UniProt P33991)
T1 sequence (P33991 whole entry): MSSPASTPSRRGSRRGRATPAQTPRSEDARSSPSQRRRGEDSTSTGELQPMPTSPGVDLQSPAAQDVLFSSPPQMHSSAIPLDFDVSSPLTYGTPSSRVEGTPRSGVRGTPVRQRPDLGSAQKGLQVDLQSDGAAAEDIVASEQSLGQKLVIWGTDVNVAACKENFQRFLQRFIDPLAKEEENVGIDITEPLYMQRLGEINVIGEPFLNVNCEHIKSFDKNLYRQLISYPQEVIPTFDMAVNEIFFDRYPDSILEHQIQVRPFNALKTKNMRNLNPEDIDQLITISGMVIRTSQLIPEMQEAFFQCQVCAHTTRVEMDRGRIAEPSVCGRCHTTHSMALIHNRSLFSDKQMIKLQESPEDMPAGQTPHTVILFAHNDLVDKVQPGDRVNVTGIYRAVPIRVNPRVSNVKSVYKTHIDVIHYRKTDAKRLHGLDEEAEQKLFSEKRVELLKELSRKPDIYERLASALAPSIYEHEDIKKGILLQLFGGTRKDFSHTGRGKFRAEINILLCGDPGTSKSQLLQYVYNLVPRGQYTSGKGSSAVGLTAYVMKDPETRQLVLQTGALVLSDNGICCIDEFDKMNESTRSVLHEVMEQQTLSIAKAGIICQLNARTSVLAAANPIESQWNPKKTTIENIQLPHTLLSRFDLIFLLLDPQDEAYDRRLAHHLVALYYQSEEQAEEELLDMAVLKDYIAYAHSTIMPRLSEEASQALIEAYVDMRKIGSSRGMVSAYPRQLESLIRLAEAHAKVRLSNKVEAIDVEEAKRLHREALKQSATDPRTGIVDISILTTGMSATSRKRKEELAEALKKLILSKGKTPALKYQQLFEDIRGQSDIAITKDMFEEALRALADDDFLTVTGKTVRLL

[2] = biological target: T2, MAP/microtubule affinity-regulating kinase 4 (Homo sapiens, UniProt Q96L34)
T2 sequence (Q96L34 whole entry): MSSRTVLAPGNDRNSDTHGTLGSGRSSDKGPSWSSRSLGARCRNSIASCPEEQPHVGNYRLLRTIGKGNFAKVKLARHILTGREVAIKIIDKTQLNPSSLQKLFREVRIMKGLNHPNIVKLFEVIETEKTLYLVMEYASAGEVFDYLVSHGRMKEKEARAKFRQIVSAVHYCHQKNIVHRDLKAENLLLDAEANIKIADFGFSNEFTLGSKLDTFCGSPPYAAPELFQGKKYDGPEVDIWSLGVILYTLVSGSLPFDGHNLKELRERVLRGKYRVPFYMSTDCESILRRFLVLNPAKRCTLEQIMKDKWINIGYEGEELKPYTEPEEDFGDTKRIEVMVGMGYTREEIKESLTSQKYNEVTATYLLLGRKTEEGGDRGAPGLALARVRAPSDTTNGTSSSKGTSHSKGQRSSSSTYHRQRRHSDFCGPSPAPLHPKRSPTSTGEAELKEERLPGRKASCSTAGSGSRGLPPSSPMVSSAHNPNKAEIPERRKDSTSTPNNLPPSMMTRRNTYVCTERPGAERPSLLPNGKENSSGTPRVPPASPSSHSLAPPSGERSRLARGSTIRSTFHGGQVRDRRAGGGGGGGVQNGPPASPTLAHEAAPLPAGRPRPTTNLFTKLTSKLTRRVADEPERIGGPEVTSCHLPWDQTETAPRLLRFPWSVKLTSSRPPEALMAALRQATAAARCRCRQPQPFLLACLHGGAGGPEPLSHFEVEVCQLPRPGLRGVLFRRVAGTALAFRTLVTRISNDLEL

[3] = biological target: Tyrosine-protein kinase Fyn (Homo sapiens, UniProt P06241)
Sequence of Tyrosine-protein kinase Fyn (P06241 whole entry): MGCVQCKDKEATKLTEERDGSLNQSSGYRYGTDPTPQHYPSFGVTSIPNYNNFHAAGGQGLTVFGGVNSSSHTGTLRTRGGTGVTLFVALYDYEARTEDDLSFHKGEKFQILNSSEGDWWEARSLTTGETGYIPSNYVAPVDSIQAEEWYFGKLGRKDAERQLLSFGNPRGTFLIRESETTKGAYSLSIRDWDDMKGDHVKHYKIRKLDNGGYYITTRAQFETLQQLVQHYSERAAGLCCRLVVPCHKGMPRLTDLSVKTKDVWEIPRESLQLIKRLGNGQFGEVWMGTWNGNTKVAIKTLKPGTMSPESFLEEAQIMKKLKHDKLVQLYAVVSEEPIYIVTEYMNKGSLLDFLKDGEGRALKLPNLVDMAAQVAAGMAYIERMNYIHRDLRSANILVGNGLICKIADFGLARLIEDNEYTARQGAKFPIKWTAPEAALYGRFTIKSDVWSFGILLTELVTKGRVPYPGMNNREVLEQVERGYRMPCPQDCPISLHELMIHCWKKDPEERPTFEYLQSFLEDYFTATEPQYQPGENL

[4] = biological target: Serine/threonine-protein kinase B-raf (Homo sapiens, UniProt P15056)
Sequence of Serine/threonine-protein kinase B-raf (P15056 whole entry): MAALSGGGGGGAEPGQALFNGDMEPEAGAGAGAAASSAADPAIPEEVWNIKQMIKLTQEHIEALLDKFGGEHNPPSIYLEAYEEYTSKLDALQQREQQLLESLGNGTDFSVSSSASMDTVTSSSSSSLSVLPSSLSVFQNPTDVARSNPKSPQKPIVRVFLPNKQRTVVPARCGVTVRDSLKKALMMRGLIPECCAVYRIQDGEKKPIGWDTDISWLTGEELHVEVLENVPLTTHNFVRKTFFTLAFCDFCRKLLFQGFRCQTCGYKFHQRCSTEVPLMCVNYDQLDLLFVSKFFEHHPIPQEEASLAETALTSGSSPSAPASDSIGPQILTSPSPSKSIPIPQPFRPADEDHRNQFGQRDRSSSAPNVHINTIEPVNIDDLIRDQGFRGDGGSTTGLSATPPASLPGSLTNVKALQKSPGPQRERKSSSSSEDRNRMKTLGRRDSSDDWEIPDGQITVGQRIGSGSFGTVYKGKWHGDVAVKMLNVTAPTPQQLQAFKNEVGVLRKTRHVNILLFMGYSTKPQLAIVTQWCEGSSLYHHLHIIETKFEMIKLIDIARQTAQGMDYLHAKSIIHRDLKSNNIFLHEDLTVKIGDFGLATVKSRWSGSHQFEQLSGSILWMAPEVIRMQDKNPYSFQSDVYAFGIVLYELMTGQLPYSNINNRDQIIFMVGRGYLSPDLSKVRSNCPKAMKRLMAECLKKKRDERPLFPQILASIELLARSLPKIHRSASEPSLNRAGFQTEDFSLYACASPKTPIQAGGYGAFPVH

[5] = biological target: Serine/threonine-protein kinase MRCK alpha (Homo sapiens, UniProt Q5VT25)
Sequence of Serine/threonine-protein kinase MRCK alpha (Q5VT25 whole entry): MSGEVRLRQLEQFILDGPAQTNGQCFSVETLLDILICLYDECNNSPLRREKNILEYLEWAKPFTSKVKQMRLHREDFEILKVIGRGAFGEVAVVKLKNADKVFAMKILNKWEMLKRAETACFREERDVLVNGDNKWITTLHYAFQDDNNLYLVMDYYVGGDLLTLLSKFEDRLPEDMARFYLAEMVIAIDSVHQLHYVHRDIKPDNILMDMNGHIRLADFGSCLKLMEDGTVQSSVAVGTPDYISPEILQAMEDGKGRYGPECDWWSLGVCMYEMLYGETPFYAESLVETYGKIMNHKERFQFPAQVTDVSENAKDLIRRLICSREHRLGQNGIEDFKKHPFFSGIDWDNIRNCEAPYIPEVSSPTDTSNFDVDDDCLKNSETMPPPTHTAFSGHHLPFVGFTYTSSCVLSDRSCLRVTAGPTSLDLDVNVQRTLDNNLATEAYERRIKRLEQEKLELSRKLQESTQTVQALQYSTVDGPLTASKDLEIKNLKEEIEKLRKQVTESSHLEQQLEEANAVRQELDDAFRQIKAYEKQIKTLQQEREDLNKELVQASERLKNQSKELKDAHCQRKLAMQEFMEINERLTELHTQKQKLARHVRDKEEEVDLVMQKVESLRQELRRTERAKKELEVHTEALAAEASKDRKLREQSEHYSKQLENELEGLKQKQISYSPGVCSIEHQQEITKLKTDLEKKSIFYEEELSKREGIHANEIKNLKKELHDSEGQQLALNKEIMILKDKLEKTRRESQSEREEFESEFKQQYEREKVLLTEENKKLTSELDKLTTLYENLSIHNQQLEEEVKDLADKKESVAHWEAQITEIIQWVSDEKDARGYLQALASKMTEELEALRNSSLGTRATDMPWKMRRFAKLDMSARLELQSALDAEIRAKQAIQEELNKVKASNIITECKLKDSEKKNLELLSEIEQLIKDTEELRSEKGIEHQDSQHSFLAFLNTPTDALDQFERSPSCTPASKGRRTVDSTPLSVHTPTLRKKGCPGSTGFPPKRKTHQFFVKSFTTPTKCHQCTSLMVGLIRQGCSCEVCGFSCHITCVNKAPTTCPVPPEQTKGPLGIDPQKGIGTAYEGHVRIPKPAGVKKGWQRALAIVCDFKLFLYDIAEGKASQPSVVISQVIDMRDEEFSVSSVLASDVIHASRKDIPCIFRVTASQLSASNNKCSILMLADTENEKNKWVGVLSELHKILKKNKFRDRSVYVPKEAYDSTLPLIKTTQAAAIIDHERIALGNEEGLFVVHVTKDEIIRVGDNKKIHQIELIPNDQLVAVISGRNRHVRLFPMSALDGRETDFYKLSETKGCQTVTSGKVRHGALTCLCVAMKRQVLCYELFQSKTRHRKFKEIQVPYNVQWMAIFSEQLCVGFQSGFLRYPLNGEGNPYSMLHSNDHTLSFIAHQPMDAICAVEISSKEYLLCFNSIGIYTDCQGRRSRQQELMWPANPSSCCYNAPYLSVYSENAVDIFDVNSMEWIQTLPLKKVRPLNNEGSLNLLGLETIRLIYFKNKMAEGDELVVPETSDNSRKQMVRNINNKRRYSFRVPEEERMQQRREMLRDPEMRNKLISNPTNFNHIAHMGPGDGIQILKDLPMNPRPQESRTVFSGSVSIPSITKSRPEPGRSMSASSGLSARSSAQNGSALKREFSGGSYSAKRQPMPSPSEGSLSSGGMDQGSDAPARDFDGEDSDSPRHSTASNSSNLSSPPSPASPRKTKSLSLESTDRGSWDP

Adenosine kinase = Adenosine kinase (Homo sapiens, UniProt P55263)
Sequence of Adenosine kinase (P55263 whole entry, the tested form may be a part): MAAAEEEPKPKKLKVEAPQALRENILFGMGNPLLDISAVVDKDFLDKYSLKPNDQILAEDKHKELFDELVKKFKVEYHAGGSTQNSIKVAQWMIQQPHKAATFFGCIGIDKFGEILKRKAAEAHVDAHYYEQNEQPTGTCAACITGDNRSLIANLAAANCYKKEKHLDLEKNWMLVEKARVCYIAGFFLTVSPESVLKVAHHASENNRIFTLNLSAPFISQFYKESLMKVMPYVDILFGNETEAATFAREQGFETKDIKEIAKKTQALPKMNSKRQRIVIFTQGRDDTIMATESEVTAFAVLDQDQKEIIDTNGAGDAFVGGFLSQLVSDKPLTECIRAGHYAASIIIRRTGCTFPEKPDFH

[6] = biological target: T3, Discoidin domain-containing receptor 2 (Homo sapiens, UniProt Q16832)
T3 sequence (Q16832 whole entry): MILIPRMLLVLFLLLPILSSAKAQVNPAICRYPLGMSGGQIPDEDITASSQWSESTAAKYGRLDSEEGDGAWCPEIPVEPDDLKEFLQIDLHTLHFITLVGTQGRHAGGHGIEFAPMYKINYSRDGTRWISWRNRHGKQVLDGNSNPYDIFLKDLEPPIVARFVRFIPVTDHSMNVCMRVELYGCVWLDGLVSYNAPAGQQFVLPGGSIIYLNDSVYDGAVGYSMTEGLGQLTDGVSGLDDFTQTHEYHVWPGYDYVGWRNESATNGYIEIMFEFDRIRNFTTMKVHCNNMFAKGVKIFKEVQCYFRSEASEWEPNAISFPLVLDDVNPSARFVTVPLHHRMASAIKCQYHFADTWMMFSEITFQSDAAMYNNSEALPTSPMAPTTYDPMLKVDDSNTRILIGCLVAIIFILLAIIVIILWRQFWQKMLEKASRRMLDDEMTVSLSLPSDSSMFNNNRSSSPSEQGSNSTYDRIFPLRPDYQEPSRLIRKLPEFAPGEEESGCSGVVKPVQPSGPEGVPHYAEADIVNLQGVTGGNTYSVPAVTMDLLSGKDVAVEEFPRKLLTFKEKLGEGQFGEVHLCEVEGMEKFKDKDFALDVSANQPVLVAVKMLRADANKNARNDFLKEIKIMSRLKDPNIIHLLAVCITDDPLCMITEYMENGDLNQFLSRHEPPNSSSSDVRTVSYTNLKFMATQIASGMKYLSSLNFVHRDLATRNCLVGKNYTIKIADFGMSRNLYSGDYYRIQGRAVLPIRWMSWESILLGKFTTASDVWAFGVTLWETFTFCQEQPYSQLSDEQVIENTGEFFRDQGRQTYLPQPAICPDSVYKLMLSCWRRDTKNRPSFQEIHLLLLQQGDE

[7] = biological target: Serine/threonine-protein kinase MRCK beta (Homo sapiens, UniProt Q9Y5S2)
Sequence of Serine/threonine-protein kinase MRCK beta (Q9Y5S2 whole entry): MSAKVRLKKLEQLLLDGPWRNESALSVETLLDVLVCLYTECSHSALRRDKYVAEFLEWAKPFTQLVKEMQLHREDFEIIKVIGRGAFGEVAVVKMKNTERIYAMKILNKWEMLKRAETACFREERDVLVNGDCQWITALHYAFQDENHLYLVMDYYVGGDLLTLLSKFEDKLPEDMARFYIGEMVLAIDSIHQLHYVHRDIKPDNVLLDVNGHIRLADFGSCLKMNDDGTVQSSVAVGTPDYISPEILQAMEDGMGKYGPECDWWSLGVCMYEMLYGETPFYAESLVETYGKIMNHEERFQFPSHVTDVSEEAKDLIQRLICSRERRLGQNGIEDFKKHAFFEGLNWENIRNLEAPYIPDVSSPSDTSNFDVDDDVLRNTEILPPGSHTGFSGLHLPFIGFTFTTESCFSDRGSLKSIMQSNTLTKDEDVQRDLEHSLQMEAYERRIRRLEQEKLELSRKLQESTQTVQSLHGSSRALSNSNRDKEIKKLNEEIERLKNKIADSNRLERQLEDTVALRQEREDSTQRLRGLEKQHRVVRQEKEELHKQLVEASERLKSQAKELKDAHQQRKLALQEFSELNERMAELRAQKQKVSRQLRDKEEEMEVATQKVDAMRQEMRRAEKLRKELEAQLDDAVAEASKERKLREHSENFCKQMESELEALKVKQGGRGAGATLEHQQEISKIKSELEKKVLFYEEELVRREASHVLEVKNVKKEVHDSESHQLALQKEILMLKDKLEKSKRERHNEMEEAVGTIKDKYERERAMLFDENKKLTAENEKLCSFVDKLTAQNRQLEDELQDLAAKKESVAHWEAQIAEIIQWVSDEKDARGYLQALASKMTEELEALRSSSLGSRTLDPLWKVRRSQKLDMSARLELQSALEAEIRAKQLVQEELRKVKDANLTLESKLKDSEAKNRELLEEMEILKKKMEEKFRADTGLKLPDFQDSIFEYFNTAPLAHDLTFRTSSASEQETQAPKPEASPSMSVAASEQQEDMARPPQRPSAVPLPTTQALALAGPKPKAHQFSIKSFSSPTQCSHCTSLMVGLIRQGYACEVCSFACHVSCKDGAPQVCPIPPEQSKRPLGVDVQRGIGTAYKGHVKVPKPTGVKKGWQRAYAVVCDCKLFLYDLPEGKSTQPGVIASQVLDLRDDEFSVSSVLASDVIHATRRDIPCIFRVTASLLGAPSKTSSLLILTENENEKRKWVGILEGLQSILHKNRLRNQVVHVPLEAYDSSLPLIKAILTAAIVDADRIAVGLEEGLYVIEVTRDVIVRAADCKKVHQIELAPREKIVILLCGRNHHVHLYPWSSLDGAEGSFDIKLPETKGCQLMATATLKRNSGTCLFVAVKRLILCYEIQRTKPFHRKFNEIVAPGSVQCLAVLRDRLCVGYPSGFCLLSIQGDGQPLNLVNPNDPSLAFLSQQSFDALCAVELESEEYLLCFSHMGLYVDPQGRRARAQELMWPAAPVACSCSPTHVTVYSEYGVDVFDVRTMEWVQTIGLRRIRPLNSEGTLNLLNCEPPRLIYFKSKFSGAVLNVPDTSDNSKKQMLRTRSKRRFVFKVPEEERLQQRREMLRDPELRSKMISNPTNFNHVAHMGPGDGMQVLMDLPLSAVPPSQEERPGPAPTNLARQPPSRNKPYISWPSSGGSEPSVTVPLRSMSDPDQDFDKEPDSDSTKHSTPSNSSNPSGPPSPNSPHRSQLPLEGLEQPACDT
Note: in the data inactive means no Kd found up to 30 µM.

SMILES	Kd [1]	Kd [2]	Kd [3]	Kd [4]	Kd [5]	Kd (Adenosine kinase)	Kd [6]	Kd [7]
Cc1cc(-c2cc(O)ccc2Cl)cc2nnc(Nc3ccc(OCCN4CCCC4)cc3)nc12	> 30 µM (inactive)	> 30 µM (inactive)	> 30 µM (inactive)	0.003 µM (active)	> 30 µM (inactive)	> 30 µM (inactive)	0.004 µM (active)	> 30 µM (inactive)
COc1cc(CCc2cc(NC(=O)c3ccc(N4C[C@@H](C)N[C@@H](C)C4)cc3)n[nH]2)cc(OC)c1 [AZD-4547]	> 30 µM (inactive)	> 30 µM (inactive)	> 30 µM (inactive)	> 30 µM (inactive)	> 30 µM (inactive)	> 30 µM (inactive)	12.9 µM (active)	> 30 µM (inactive)
Cc1cc([C@@H](C)Nc2ccccc2C(=O)O)c2nc(N3CCOCC3)cc(=O)n2c1 [AZD-6482]	> 30 µM (inactive)	> 30 µM (inactive)	> 30 µM (inactive)	> 30 µM (inactive)	> 30 µM (inactive)	> 30 µM (inactive)	> 30 µM (inactive)	> 30 µM (inactive)
